Molecular target: T1, E. coli DdlB enzyme (D-alanine:D-alanine ligase) (Escherichia coli, UniProt P07862)
T1 construct: made in house; host or cells: E. coli
Test: biochemical
Settings: residual activity of DdlB; fragment library screening; tested concentration 2.5 mM; read-out: DdlB RA

Row | Structure (SMILES) | remaining activity at 2500 µM [%]
1 | N#CCc1ccsc1 [FLD183] | 100
2 | Clc1nccs1 [FLD184] | 98
3 | COc1ccncc1 [FLD185] | 99
4 | CC1=NCCC1 [FLD186] | 71
5 | CC1=NCCS1 [FLD187] | 100
6 | CC1=NC(C)(C)CO1 [FLD188] | 91
7 | CCOC(=O)N1CCC(N)CC1 [FLD189] | 98
8 | CC(=O)N1CCC(=O)CC1 [FLD190] | 100
9 | CCOC(=O)N1CCNCC1 [FLD191] | 100
10 | CCNCc1ccncc1 [FLD193] | 91
11 | Cc1ncc(CO)c(CO)c1O [FLD194] | 99
12 | Cc1cc(C)n(CO)n1 [FLD195] | 97
13 | N#Cc1cccnc1N [FLD196] | 99
14 | OCc1ccncc1 [FLD197] | 100
15 | Cn1c(C(=O)O)cc2ccccc21 [FLD198] | 79
16 | Nc1cccc(F)n1 [FLD199] | 91
17 | OCc1cccs1 [FLD200] | 95

Same assay, conditions: residual activity; tested concentration 1.7 mM; read-out: DdlB RA

Row | Structure (SMILES) | remaining activity at 1700 µM [%]
18 | O=C(N/N=C/c1ccc2cccc(O)c2n1)c1ccccc1 [Compound 4539-0001] | 49
19 | Oc1cccc2ccc(/C=C/c3ccc4c(c3)OCO4)nc12 [Compound 4896-3346] | 139
20 | O=C(N/N=C/c1ccc2cccc(O)c2n1)c1ccncc1 [Compound 8006-6830] | 71
21 | O=C(C1CC1)N1CC(c2n[nH]c(C3CC3)n2)C2(CCC2)C1 (centres unmarked) [SC70-0192] | 95
22 | COCCn1nc(-c2cocn2)c2c1CCN(C(C)C)C2 [SD01-0107] | 92

Same assay, conditions: residual activity; tested concentration 1.8 mM; read-out: DdlB RA

Row | Structure (SMILES) | remaining activity at 1800 µM [%]
23 | O=C(N/N=C/c1ccc2cccc(O)c2n1)c1ccco1 [Compound 8006-5465] | 72
24 | CCS(=O)(=O)N1CC2(CC(N3CCCC3)CO2)C1 (centres unmarked) [SA46-1771] | 90
25 | C1CNCC(CCc2noc(C3CCOCC3)n2)C1 (centres unmarked) [SA66-1056] | 94

Same assay, conditions: residual activity; tested concentration 1.9 mM; read-out: DdlB RA

Row | Structure (SMILES) | remaining activity at 1900 µM [%]
26 | Oc1ccccc1/N=C/c1ccc2cccc(O)c2n1 [Compound 0422-0036] | 79
27 | Oc1nc(-c2ccc(Cl)cc2)c2ccccc2n1 [Compound 3740-0004] | 83
28 | Oc1cccc(/C=C/c2ccc3cccc(O)c3n2)c1 [Compound 5617-0440] | 55
29 | Cc1n[nH]c([C@@H]2CC(F)(F)CN2C2CCCCCC2)n1 [SB35-1022] | 97

Same assay, conditions: residual activity; tested concentration 2.0 mM; read-out: DdlB RA

Row | Structure (SMILES) | remaining activity at 2000 µM [%]
30 | Oc1c(Cl)cc(Cl)c2ccc(Cl)nc12 [Compound 0422-0102] | 99
31 | O=C(Cc1ccccc1[N+](=O)[O-])Nc1nnc[nH]1 [Compound 7882-1936] | 118
32 | Cc1ccc(-c2csc(NC(=O)CO)n2)cc1 [Compound 8005-2972] | 88
33 | O=C(O)c1ccc(N2Cc3ccccc3C2)cc1O [Compound 8005-9285] | 61

Same assay, conditions: residual activity; tested concentration 2.1 mM; read-out: DdlB RA

Row | Structure (SMILES) | remaining activity at 2100 µM [%]
34 | Oc1cccc2ccc(Nc3ccccn3)nc12 [Compound 0422-0008] | 31
35 | Cc1ccc(-c2nc(O)nc3ccccc23)cc1 [Compound 3740-0006] | 83
36 | O=C(Cc1ccc(Cl)cc1)Nc1nnc[nH]1 [Compound 7881-1517] | 79
37 | O=C1C[C@H]2CN(S(=O)(=O)c3ccccc3)C[C@H]2CN1 [SB76-0562] | 86
38 | Cn1nc(CCC(=O)N2CCNC(=O)C2)c2c1CCOC2 [SD48-0069] | 99

Same assay, conditions: residual activity; tested concentration 2.2 mM; read-out: DdlB RA

Row | Structure (SMILES) | remaining activity at 2200 µM [%]
39 | Cc1ncc(CO)c(C2CCCN(C(=O)C(C)C)C2)n1 (centres unmarked) [SA04-1071] | 95
40 | CC(=O)N1CC(=O)N(CCc2ccccc2)CC(O)C1 (centres unmarked) [SA85-1024] | 95
41 | CC(C)CN1CC(O)CN(C(=O)C2CCC2)CC1=O (centres unmarked) [SA85-1056] | 97
42 | O=C1Cn2nnc(CNC(=O)NC3CCCC3)c2CN1 [SC45-0107] | 93
43 | Cn1nc(CCC(=O)NC2CCCC2)c2c1CCOC2 [SD48-0064] | 102

Same assay, conditions: residual activity; tested concentration 2.3 mM; read-out: DdlB RA

Row | Structure (SMILES) | remaining activity at 2300 µM [%]
44 | CCc1cccc2c(=O)c(C(=O)O)c[nH]c12 [Compound 2595-1123] | 47

Same assay, conditions: tested concentration 1.9 mM; read-out: DdlB RA

Row | Structure (SMILES) | remaining activity at 1900 µM [%]
45 | O=C(NCc1ccccc1)C1(F)CCNC1 (centres unmarked) [SA94-0001] | 97

Same assay, conditions: tested concentration 2.1 mM; read-out: DdlB RA

Row | Structure (SMILES) | remaining activity at 2100 µM [%]
46 | Cc1c(Cl)ccc(S(N)(=O)=O)c1Cl [Compound 8011-1291] | 69

Same assay, conditions: tested concentration 2.2 mM; read-out: DdlB RA

Row | Structure (SMILES) | remaining activity at 2200 µM [%]
47 | Nc1cc(Br)cc2cccnc12 [Compound 8009-3726] | 89
48 | CC(=O)N1CC(c2nc(C)no2)C2(CNC2)C1 (centres unmarked) [SB57-1191] | 69

Same assay, conditions: tested concentration 2.4 mM; read-out: DdlB RA

Row | Structure (SMILES) | remaining activity at 2400 µM [%]
49 | CC(C)CCN1C[C@@H]2CN(C)C(=O)[C@H](C)N2C1=O [SB41-0167] | 85
50 | Cc1nc(CCOC2CCCNC2)no1 (centres unmarked) [SC04-0106] | 95

Same assay, conditions: tested concentration 2.7 mM; read-out: DdlB RA

Row | Structure (SMILES) | remaining activity at 2700 µM [%]
51 | CC(=O)N1CCC(CCc2noc(C)n2)C1 (centres unmarked) [SA67-1016] | 93

Tested on: not listed separately
Test: Solubility at tested concentrations (fragment library screening)
Type: physicochemical
Settings: tested concentration 1.7 mM
Text: Supplement IENZ_A_2149745_SM2502.zip/DDlB_CDR05_SI_20221103.xlsx, sheet "Fragment library screening" | column: Solubility at tested concentrations

Row | Structure (SMILES) | Solubility at tested concentrations
52 | O=C(N/N=C/c1ccc2cccc(O)c2n1)c1ccccc1 [Compound 4539-0001] | not soluble
53 | Oc1cccc2ccc(/C=C/c3ccc4c(c3)OCO4)nc12 [Compound 4896-3346] | not soluble
54 | O=C(N/N=C/c1ccc2cccc(O)c2n1)c1ccncc1 [Compound 8006-6830] | not soluble

Same assay, conditions: tested concentration 1.8 mM

Row | Structure (SMILES) | Solubility at tested concentrations
55 | O=C(N/N=C/c1ccc2cccc(O)c2n1)c1ccco1 [Compound 8006-5465] | not soluble

Same assay, conditions: tested concentration 1.9 mM

Row | Structure (SMILES) | Solubility at tested concentrations
56 | Oc1ccccc1/N=C/c1ccc2cccc(O)c2n1 [Compound 0422-0036] | not soluble
57 | Oc1nc(-c2ccc(Cl)cc2)c2ccccc2n1 [Compound 3740-0004] | not soluble
58 | Oc1cccc(/C=C/c2ccc3cccc(O)c3n2)c1 [Compound 5617-0440] | not soluble

Same assay, conditions: tested concentration 2.0 mM

Row | Structure (SMILES) | Solubility at tested concentrations
59 | Oc1c(Cl)cc(Cl)c2ccc(Cl)nc12 [Compound 0422-0102] | not soluble
60 | O=C(Cc1ccccc1[N+](=O)[O-])Nc1nnc[nH]1 [Compound 7882-1936] | not soluble
61 | Cc1ccc(-c2csc(NC(=O)CO)n2)cc1 [Compound 8005-2972] | not soluble
62 | O=C(O)c1ccc(N2Cc3ccccc3C2)cc1O [Compound 8005-9285] | not soluble

Same assay, conditions: tested concentration 2.1 mM

Row | Structure (SMILES) | Solubility at tested concentrations
63 | Oc1cccc2ccc(Nc3ccccn3)nc12 [Compound 0422-0008] | not soluble
64 | Cc1ccc(-c2nc(O)nc3ccccc23)cc1 [Compound 3740-0006] | not soluble
65 | O=C(Cc1ccc(Cl)cc1)Nc1nnc[nH]1 [Compound 7881-1517] | not soluble
66 | Cc1c(Cl)ccc(S(N)(=O)=O)c1Cl [Compound 8011-1291] | not soluble

Same assay, conditions: tested concentration 2.2 mM

Row | Structure (SMILES) | Solubility at tested concentrations
67 | Nc1cc(Br)cc2cccnc12 [Compound 8009-3726] | not soluble

Same assay, conditions: tested concentration 2.3 mM

Row | Structure (SMILES) | Solubility at tested concentrations
68 | CCc1cccc2c(=O)c(C(=O)O)c[nH]c12 [Compound 2595-1123] | not soluble
